Experimental data reported in PubChem BioAssay (NCI).
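Protocol summary: plate cells (96-well), add compound at 5 concentrations, incubate 48 h, interpolate endpoints linearly. Definition used: TGI = concentration required for complete inhibition of growth.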

Tests used:
Experiment in all cases: NCI anticancer screen, dose series, 48 h
786-0 renal = tested on: 786-0 renal
A498 renal = tested on: A498 renal
A549 NSCLC = tested on: A549 NSCLC
ACHN renal = tested on: ACHN renal
BT-549 breast = tested on: BT-549 breast
CAKI-1 renal = tested on: CAKI-1 renal
CCRF-CEM leukemia = tested on: CCRF-CEM leukemia
EKVX NSCLC = tested on: EKVX NSCLC
HCC-2998 colon = tested on: HCC-2998 colon
HCT-116 colon = tested on: HCT-116 colon
HCT-15 colon = tested on: HCT-15 colon
HL-60(TB) leukemia = tested on: HL-60(TB) leukemia
HOP-62 NSCLC = tested on: HOP-62 NSCLC
HOP-92 NSCLC = tested on: HOP-92 NSCLC
HS 578T breast = tested on: HS 578T breast
HT29 colon = tested on: HT29 colon
IGROV1 ovarian = tested on: IGROV1 ovarian
K-562 leukemia = tested on: K-562 leukemia
KM12 colon = tested on: KM12 colon
LOX IMVI melanoma = tested on: LOX IMVI melanoma
M14 melanoma = tested on: M14 melanoma
MALME-3M melanoma = tested on: MALME-3M melanoma
MCF7 breast = tested on: MCF7 breast
MDA-MB-231 breast = tested on: MDA-MB-231 breast
MDA-MB-435 = tested on: MDA-MB-435
MOLT-4 leukemia = tested on: MOLT-4 leukemia
NCI-H226 lung = tested on: NCI-H226 lung
NCI-H460 lung = tested on: NCI-H460 lung
NCI-H522 lung = tested on: NCI-H522 lung
NCI/ADR-RES ovarian = tested on: NCI/ADR-RES ovarian
OVCAR-3 ovarian = tested on: OVCAR-3 ovarian
OVCAR-4 ovarian = tested on: OVCAR-4 ovarian
OVCAR-5 ovarian = tested on: OVCAR-5 ovarian
OVCAR-8 ovarian = tested on: OVCAR-8 ovarian
PC-3 prostate = tested on: PC-3 prostate
RPMI-8226 leukemia = tested on: RPMI-8226 leukemia
RXF 393 renal = tested on: RXF 393 renal
SF-268 CNS = tested on: SF-268 CNS
SF-295 CNS = tested on: SF-295 CNS
SF-539 CNS = tested on: SF-539 CNS
SK-MEL-2 melanoma = tested on: SK-MEL-2 melanoma
SK-MEL-28 melanoma = tested on: SK-MEL-28 melanoma
SK-MEL-5 melanoma = tested on: SK-MEL-5 melanoma
SK-OV-3 ovarian = tested on: SK-OV-3 ovarian
SN12C renal = tested on: SN12C renal
SNB-19 CNS = tested on: SNB-19 CNS
SNB-75 CNS = tested on: SNB-75 CNS
SR leukemia = tested on: SR leukemia
SW-620 colon = tested on: SW-620 colon
T-47D breast = tested on: T-47D breast
TK-10 renal = tested on: TK-10 renal
U251 CNS = tested on: U251 CNS
UACC-257 melanoma = tested on: UACC-257 melanoma
UACC-62 melanoma = tested on: UACC-62 melanoma
UO-31 renal = tested on: UO-31 renal

Measured: TGI

NNC(=S)N/N=C(\C(=O)Nc1cccc(O)c1)C1C(=O)NC(=S)NC1=O
> 100 µM: all assays above
